The values that follow come from patent US6713623B2, “Tetraphosphonate bicyclic trisanhydrides” (Pharmasset, Ltd., priority 1996, dated 2004).

Each structure is given as a SMILES string.

The test system of data set [1] is glucuronosyltransferases. Put plainly: glucuronidation by glucuronosyltransferases in vitro. It is filed as in vitro ADME. Conditions: parallel experiments.
The test system of data set [2] is K562 erythroleucemic cells. As to the kind of experiment: anti-proliferative activity against K562 cells. Format: cell-based. Conditions: Homo sapiens, read-out: IC50, growth of K562 cells. The protocol: The compounds of structure 1 are stable in plasma at room temperature for at least several days. It is assayed for both inhibitory activity against human IMPDH type II and for anti-proliferative activity against K562 erythroleucemic cells. […] The ability to induce differentiation in K562 cells is also estimated by determining the fraction of benzidine positive cells converted following incubation with β-methylene-MAD.

For data set [3], the target named is human IMPDH type II (Homo sapiens, UniProt P12268). Put plainly: inhibitory activity against human IMPDH type II. The following applies: 100 μM NAD, 50 μM IMP, 25 nM enzyme, pH 8.0; read-out: Ki, inhibitor of IMPDH type II. It is filed as biochemical.
The test system of data set [4] is inosine monophosphate dehydrogenase (IMPDH). Conditions: Marquez et al., J. Med. Chem. 1986; cited from earlier work.
Data set [5] concerns B and T lymphocyte. The following applies: cited from earlier work.
For data set [6], the target named is IMPDH type I (Homo sapiens, UniProt P20839). The following applies: Carr et al.; read-out: Ki, IMPDH type I expressed in normal cells; cited from earlier work.
Chain of IMPDH type I (P20839 whole entry): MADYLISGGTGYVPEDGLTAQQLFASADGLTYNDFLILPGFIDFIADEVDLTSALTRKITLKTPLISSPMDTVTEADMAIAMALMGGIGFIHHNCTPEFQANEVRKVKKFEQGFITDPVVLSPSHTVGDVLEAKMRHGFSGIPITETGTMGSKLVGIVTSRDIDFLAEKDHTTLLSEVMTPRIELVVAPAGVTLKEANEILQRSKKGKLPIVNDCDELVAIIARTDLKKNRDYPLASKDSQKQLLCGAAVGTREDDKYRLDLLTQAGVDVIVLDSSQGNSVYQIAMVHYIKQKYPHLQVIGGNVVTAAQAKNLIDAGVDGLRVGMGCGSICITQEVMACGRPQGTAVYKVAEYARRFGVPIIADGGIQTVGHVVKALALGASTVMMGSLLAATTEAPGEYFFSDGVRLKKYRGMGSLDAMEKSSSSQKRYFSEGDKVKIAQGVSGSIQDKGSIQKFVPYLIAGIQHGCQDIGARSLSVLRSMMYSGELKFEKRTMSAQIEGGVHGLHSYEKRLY
Data set [7] has as its system tumors. The following applies: quick conversion into the inactive β-glucuronide after administration; cited from earlier work.

As usually defined, the IC50 is the midpoint of a concentration-inhibition curve. The Ki is a measure of affinity in units of concentration, obtained from inhibition or displacement. With `COc1c(C)c2c(c(O)c1CC=C(C)CCCOP(=O)(O)CP(=O)(O)OCC1OC(n3cnc4c(N)ncnc43)C(O)C1O)C(=O)OC2` (stereo not drawn) [β-methylene-MAD, P^1-(adenosin-5-yl)-P^2-(mycophenol-5′-yl)methylenebis(phosphonate)], in data set [1], the “glucuronidation by various glucuronosyltransferases” value is recorded as “completely resistant to glucuronidation”. Further, the IC50 in data set [2] was determined as 6 µM. Further, the Ki in data set [3] was 300 nM.
Consider `NC(=O)c1csc([C@@H]2O[C@H](COP(=O)(O)CP(=O)(O)OC[C@H]3O[C@@H](n4cnc5c(N)ncnc54)[C@H](O)[C@@H]3O)[C@@H](O)[C@H]2O)n1` [β-methylene TAD], for which the “inhibition of IMPDH” value in data set [4] is given as “potent inhibitor”.
For `COc1c(C)c2c(c(O)c1C/C=C(\C)CCC(=O)O)C(=O)OC2` [mycophenolic acid, Mycophenolic acid], the “glucuronidation by various glucuronosyltransferases” value in data set [1] is on record as “effectively glucuronidated”. Moreover, the “B and T lymphocyte proliferation” value in data set [5] is “blocks”. Moreover, the Ki in data set [6] was 33 to 37 nM. Further, in data set [7], the activity against tumors entry is “inactive”.
